Experimental data reported in patent US20260060982A1, “USE OF BTK INHIBITOR AND SINGLE-DOSE DRUG” (HUBEI BIO-PHARMACEUTICAL INDUSTRIAL TECHNOLOGICAL INSTITUTE …, priority 2023, published 2026).

Legend:
[1] = target: BTK (Homo sapiens, UniProt Q06187); test: Inhibition of BTK kinase activity (HTRF); type: biochemical
Experimental: The specific experimental steps were as follows:
The BTK kinase/peptide mix solution was added to the assay plate at 5 μL per well, and centrifuged at 1000 rpm for 1 min. The assay plate was incubated at 23° C. for 15 min.
C. An ATP solution (3968 μL of 1.33× kinase reaction buffer and […] of 10 mM ATP) was prepared, added to the assay plate at 2.5 μL per well, and centrifuged at 1000 rpm for 1 min. The assay plate was incubated at 23° C. for 90 min.
The assay plate was incubated at 23° C. for 60 min and read on the Envision multilabel reader.
E. IC50 results were analyzed using XLFIT5 (Formula 205) from IDBS.

[2] = system: IgM-induced calcium signaling in RAMOS cells; test: Antagonism of IgM-induced calcium signaling in RAMOS cells (FLIPR); type: cell-based; details: Homo sapiens, Fluo-4D dye
Experimental: The specific test steps were as follows:
A. Ramos cells (ECACC) were seeded in a 384 experimental plate using cell culture medium (RPMI 1640 medium supplemented with 10% fetal bovine serum) at a density of 5×10^6 cells/mL, 20 μL per well.
C. The cell plate and the compound plate were placed into FLIPR. 10 μL was transferred from the compound plate by the FLIPR instrument and added to the cell plate. The cell plate was removed and incubated in a 37° C. incubator for 1 h.
D. One hour later, 40 μL of Fluo-4D dye (Life Technologies, formulated as 0.5× with 40 mL of HBSS and HEPES buffer) was added to the cell plate and incubated at 37° C. for 50 min.
E. 10 μL of IgM at 8×EC80 concentration was added, and the plate was read using FLIPR.
F. The IC50 results of the compounds were analyzed using EXCEL and Prism statistical software.

[3] = system: anti-DNP IgE-induced passive cutaneous anaphylaxis in BALB/c mice; test: Passive cutaneous anaphylaxis (PCA) model in mice induced with anti-DNP IgE; type: in vivo
Excerpt: Passive cutaneous anaphylaxis test, also known as PCA reaction, is a local allergic reaction caused by antibodies that bind to the same or different animal tissues. The PCA animal model in the present disclosure was a passive sensitization model in which IgE binds to specific receptors on skin mast cells. When allergens were stimulated, local mast cells released allergic mediators, thereby increasing local vascular permeability. […] The specific steps were as follows:
The PCA model in mice was induced using anti-DNP IgE. Specifically, BALB/c mice were divided into 9 groups, namely, a normal control group (no administration, injection, or feeding of any solvent), a model group (no administration, injection, or feeding of any solvent), a prednisone group (10 mg/kg, administered for 3 consecutive days, QD (once a day), prednisone concentration of 1 mg/mL, and an administration volume of 10 mL/kg), a cetirizine group (20 mg/kg, administered for 3 consecutive days, QD, cetirizine concentration of 2 mg/mL, and an administration volume of 10 mL/kg), a low-dose group and a medium-dose group for the test substance LOU-064 (15 mg/kg and 45 mg/kg, administered for 3 consecutive days, BID (twice a day), LOU-064 concentrations of 1.5 mg/mL and 4.5 mg/mL, and an administration volume of 10 mL/kg), and a low-dose group, a medium-dose group, and a high-dose group for compound (I) (15 mg/kg, 45 mg/kg, and 90 mg/kg, administered for 3 consecutive days, BID, compound (I) concentrations of 1.5 mg/mL, 4.5 mg/mL, and 9 mg/mL, and an administration volume of 10 mL/kg), with 9 mice in each group, administered by gavage for a total of 4 days. On day 3 of the administration, anti-DNP IgE (Sigma-Aldrich) was injected into the left ears of 8 groups of mice (no normal control group), and the same volume of PBS was injected into the right ears of 8 groups and the left and right ears of the normal control group to allow it to bind to mast cells. Then, 24 hours after the fourth day of anti-DNP IgE injection, a mixed solution of antigen (DNP-HAS, Sigma) and pigment Evan's Blue (Sigma) (0.25 mL/mouse, i.v.) was injected into the tail vein (the normal control group was injected with the same volume of the mixed solution of antigen and pigment Evan's Blue). The antigen reacted with the antibody attached to the mast cells, causing a local allergic reaction, increased local vascular permeability, and pigment penetration into the tissue. The reaction intensity was determined by measuring the local pigment content 30 minutes later. The dye was extracted from the left and right ears, and the absorbance of Evan's blue was measured at a specific wavelength. […] The efficacy effects of each test substances in the PCA animal model were evaluated.

[4] = Phase I single-dose clinical trial, safety and tolerability; type: in vivo, human; details: compound (I) group, all doses (n = 80)
Excerpt: In this example, 96 healthy Chinese aged 18 to 45 were recruited as subjects. The trial included 8 dose groups, each with 12 subjects, who were randomly divided into groups, 10 of whom received compound (I) capsules (i.e., the trial group) and 2 received placebo capsules (containing no compound (I), i.e., the control group or placebo group). […] The dosages involved in this example were all the amount of compound (I). Based on safety and exploration factors, the human MRSD (maximum recommended starting dose) of compound (I) capsule used in the example was set at 10 mg, and the human maximum recommended dose was set at 800 mg. A total of 8 dose groups were set up between the initial dose and the maximum dose (see Table 2 for the dose escalation scheme of the clinical trial): 10 mg, 25 mg, 50 mg, 100 mg, 200 mg, 400 mg, 600 mg, and 800 mg, and single administration safety and tolerability trials were conducted group by group.
The subjects fasted for 10 h before administration and took a single oral administration of compound (I) capsule or placebo capsule at the prescribed dose on the morning of the trial day. Water was prohibited within 2 h after the administration and food was prohibited within 4 h after the administration. Blood sample collection: 3.0 ml of venous blood was collected before administration (within 45 min) and at 10 min, 20 min, 0.5 h, 1 h, 1.5 h, 1.75 h, 2 h, 2.5 h, 3 h, 3.5 h, 4 h, 6 h, 8 h, 12 h, 16 h, 24 h, 36 h, 48 h, and 72 h after administration. Urine sample collection: Urine samples were collected before administration (within 2 h) and at 0-2 h, 2-4 h, 4-8 h, 8-12 h, 12-16 h, 16-24 h, 24-48 h, and 48-72 h after administration. Feces collection: Feces were collected before administration (within 3 days) and at 0-24 h, 24-48 h, and 48-72 h after administration.
Safety data set: including all subjects who received at least one administration and had post-administration safety data. […]

Sequence of BTK (Q06187 whole entry): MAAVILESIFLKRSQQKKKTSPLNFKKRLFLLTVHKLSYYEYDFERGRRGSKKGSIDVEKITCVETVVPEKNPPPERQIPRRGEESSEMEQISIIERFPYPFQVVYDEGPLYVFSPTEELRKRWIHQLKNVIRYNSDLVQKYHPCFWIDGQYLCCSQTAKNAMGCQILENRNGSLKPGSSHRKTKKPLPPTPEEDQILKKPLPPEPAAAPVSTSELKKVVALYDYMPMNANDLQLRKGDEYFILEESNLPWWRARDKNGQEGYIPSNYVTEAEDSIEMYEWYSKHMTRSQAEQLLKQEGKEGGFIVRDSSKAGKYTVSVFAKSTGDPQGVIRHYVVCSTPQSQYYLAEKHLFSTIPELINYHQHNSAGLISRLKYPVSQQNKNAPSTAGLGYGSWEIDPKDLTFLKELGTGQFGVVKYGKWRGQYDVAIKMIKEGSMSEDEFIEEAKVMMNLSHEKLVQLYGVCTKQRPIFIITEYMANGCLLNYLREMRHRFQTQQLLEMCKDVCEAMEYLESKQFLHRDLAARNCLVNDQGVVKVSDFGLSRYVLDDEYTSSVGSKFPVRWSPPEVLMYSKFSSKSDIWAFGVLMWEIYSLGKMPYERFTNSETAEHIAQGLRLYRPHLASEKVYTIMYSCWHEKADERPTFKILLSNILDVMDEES

IC50 [1]: ≤ 4 nM
IC50 [2]: 55 ± 3.34 nM
SMILES: C=CC(=O)N1CCC[C@@H](n2nc(-c3ccc(Oc4ccccn4)cc3)c3c(N)n[nH]c(=O)c32)C1 [compound (I), (R)-1-(1-acryloylpiperidin-3-yl)-4-amino-3-(4-(pyridin-2-yloxy)phenyl)-1H-pyrazolo[3,4-d]pyridazin-7(6H)-one]
Concentration of Evan's Blue, Left ear, Average value ([3]; 15 mg/kg BID by gavage): 25.68 µg/mL
Concentration of Evan's Blue, Left ear, Average value ([3]; 45 mg/kg BID by gavage): 18.21 µg/mL
Concentration of Evan's Blue, Left ear, Average value ([3]; 90 mg/kg BID by gavage): 22.00 µg/mL
Evan's Blue content in the modeling ear compared with the model group ([3]; three dose groups (15, 45, 90 mg/kg BID)): significantly reduced
subjects with TEAEs [4]: 25
subjects with TEAEs, share [4]: 31.3%
treatment-emergent adverse events (TEAE), number of events [4]: 35
